We go through 3 molecules from ChEMBL document CHEMBL5030524, “Discovery of Cyclic Peptidomimetic Ligands Targeting the Extracellular Domain of EGFR” (J Med Chem, 2021).

The nature of series [1]: Oral bioavailability in human. It counts as ADME, organism-based. The following applies: in vivo.
The target of series [2] is T1, Epidermal growth factor receptor (Homo sapiens, UniProt P00533). As to the kind of experiment: Binding affinity to EGFR (unknown origin) assessed as dissociation constant by fluorescence polarization assay. On the technique in general: Polarisation of emitted light reports the rotation of a fluorescent probe.
T1 sequence (P00533 whole entry): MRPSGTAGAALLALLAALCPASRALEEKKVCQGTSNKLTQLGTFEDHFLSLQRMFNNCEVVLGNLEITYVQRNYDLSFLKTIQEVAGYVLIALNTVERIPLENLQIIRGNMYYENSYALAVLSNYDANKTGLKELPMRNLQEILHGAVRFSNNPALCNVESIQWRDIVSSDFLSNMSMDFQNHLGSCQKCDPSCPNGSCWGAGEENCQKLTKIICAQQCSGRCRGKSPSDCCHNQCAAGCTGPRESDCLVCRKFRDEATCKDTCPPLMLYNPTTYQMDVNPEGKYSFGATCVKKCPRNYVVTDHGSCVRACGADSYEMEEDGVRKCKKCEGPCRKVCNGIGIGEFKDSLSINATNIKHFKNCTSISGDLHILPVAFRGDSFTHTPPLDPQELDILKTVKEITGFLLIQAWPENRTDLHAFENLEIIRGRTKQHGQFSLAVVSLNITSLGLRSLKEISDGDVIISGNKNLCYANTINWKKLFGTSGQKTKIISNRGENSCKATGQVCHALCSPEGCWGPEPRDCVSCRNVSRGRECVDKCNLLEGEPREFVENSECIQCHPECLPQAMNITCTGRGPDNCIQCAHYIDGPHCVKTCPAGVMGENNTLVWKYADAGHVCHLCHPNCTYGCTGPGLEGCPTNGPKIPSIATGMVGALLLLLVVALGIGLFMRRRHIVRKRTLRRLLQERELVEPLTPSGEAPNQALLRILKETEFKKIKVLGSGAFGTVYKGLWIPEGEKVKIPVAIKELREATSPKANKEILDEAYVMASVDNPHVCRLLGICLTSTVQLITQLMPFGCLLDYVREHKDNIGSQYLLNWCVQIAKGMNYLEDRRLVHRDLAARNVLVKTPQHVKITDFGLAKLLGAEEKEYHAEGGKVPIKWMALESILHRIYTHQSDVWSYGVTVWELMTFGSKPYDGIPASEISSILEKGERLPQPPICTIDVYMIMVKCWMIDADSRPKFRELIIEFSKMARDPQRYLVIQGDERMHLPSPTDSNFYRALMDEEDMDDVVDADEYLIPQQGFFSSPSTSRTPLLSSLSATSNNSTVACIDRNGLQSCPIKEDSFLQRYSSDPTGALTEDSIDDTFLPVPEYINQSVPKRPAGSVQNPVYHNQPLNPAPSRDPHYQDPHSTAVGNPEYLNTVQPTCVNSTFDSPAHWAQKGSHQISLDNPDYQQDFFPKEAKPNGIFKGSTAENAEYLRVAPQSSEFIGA
Series [3] addresses T1, Epidermal growth factor receptor. As to the kind of experiment: Inhibition of […] EGFR phosphorylation in human A549 cells pretreated for 4 hr followed by EGF stimulation by Western blot analysis. It counts as cell-based. In general terms: In western blotting, separated proteins are transferred to a membrane and probed.
The target is the same in series [4]. As to the kind of experiment: Inhibition of EGFR in human A549 cells assessed as reduction in EGF-induced Akt phosphorylation measured after 4 hrs by Western blot analysis. It counts as cell-based.
For series [5] the target is unchanged. As to the kind of experiment: Inhibition of EGFR in human A549 cells assessed as reduction in EGF-induced ERK phosphorylation measured after 4 hrs by Western blot analysis. The series is classed as cell-based.
Series [6] has as its system A549. As to the kind of experiment: Antiproliferative activity against human serum starved A549 cells assessed as reduction in cell viability after 48 hrs in presence of EGF by CCK8 assay. The note with it: A549, 48 h. The series is classed as functional, cell-based. (In general: Formazan colour is commonly taken as a measure of viable cells.)
For series [7], the system named is A549. As to the kind of experiment: Antiproliferative activity against human serum starved A549 cells assessed as reduction in cell viability at 10 uM after 48 hrs by CCK8 assay relative to control. The series is classed as functional.
Series [8] has as its system HEK293. As to the kind of experiment: Cytotoxicity against HEK293 cells assessed as reduction in cell viability after 48 hrs by CCK8 assay. The series is classed as cell-based. The following applies: Homo sapiens, HEK293, 48 h.
The nature of series [9]: Selectivity ratio of IC50 for HEK293 cells to IC50 for human A549 cells. It counts as toxicity. The following applies: HEK293 cells versus A549 cells, read-out: Ratio IC50.
Series [10] deals with A549. As to the kind of experiment: Antimigratory activity against human A549 cells assessed as inhibition of cell migration at 25 uM measured after 30 hrs by scratch wound healing assay (reference value: 55.3 %). It counts as functional. The arrangement: scale not given: the % may be the effect or the level left.
The test system of series [11] is A549. As to the kind of experiment: Antimigratory activity against human A549 cells assessed as inhibition of cell migration at 25 uM in presence of EGF by scratch wound healing assay (reference value: 133.9 %). On the set-up: scale not given: the % may be the effect or the level left. It counts as functional.
Series [12] has as its system A549. As to the kind of experiment: Antitumor activity against human A549 cells xenografted in athymic nude Ncr/nu mouse assessed as suppression of tumor growth at 10 mg/kg, ip administered once every 2 days for seven times and measured after 6 day. It counts as functional, organism-based.
Series [13] deals with A549. As to the kind of experiment: Antitumor activity against human A549 cells xenografted in athymic nude Ncr/nu mouse assessed as suppression of tumor growth at 50 mg/kg, ip administered once every 2 days for seven days. The series is classed as functional, organism-based. The note with it: time 7.0 day.
A short description of series [14]: Toxicity in athymic nude Ncr/nu mouse xenografted with human A549 cells assessed as effect on weight gain at 10 to 50 mg/kg, ip. It counts as organism-based. The following applies: in vivo, 144 h, dose 10-50 mg/kg, time 6 day.
The test system of series [15] is Mus musculus. As to the kind of experiment: In vivo inhibition of EGFR in athymic nude Ncr/nu mouse xenografted with human A549 cell assessed as reduction in phosphorylated EGFR expression at 50 mg/kg, ip administered every 2 days for 7 times measured after 6 days by immunohistochemical staining based analysis. It counts as functional, organism-based. The note with it: time 6.0 day.

In series [16] the test system is Mus musculus. As to the kind of experiment: In vivo inhibition of EGFR in athymic nude Ncr/nu mouse xenografted with human A549 cell assessed as reduction in phosphorylated ERK expression at 50 mg/kg, ip administered every 2 days for 7 times measured after 6 days by immunohistochemical staining based analysis. It counts as functional, organism-based. The note with it: time 6.0 day.

The target of series [17] is T1, Epidermal growth factor receptor. As to the kind of experiment: Inhibition of […] EGFR phosphorylation in human A549 cells at 25 uM pretreated for 4 hr followed by EGF stimulation by Western blot analysis relative to control. It counts as cell-based.
The nature of series [18]: Stability of the compound assessed as pronase (unknown origin)-mediated drug degradation measured after 20 hrs by HPLC analysis. The series is classed as ADME. The following applies: bacteria.

SMILES strings stand for the structures. Calls of active or inactive are those of the source. The calls are words filed in the database; no cut-off is given here.

With `NC(=O)N1c2ccccc2C=Cc2ccccc21` [CARBAMAZEPINE], the bioavailability – broadly, the share of a dose that reaches the circulation, judged against a reference dose that is usually intravenous – in [1] was greater than 90%.

`COc1cc(CC(=O)N2CC(=O)N[C@@H](Cc3ccccc3)C(=O)N(CC(N)=O)C(=O)CCSCc3ccc(cc3)C(=O)N[C@@H](CCCCN)CN(C(=O)CCC3CCCCC3)CC(=O)N[C@@H](Cc3ccccc3)CN(C(=O)CCc3ccccc3)CC(=O)N[C@@H](Cc3ccccc3)C2)cc(OC)c1`: the dissociation constant Kd (commonly the concentration at which binding is half-saturated) in series [2] worked out at 0.43 µM. Besides, the values for the IC50 in series [3], in series [6] and in series [8] were 17.7 µM, 8.36 µM and 62.1 µM, respectively. Besides, the inhibition (as a rule, how much of the control response was suppressed) in [4] was “Dose-Dependent Effect”; in [5], “Dose-Dependent Effect”; in series [17], 100%. In addition, the Activity was 100% in series [7], 15.2% in [10], 64.8% in series [11] and “Non-Toxic” in series [14]. In series [9], the selectivity ratio worked out at 8. The result in series [12] was inactive. In addition, the outcome in [13] was Active. In addition, the inhibition result in series [15] is “Active”. Moreover, the inhibition entry in [16] was “inactive”. The Drug degradation entry in [18] was “Stable”.

Consider `CC(C)C[C@H]1CN(C(=O)Cc2ccc3c(c2)OCO3)CC(=O)N[C@@H](Cc2ccccc2)CN(C(=O)CCC2CCCCC2)CC(=O)N[C@@H](Cc2ccccc2)CN(C(=O)Cc2ccc3c(c2)OCO3)CC(=O)N[C@@H](CC(C)C)C(=O)N(CC(N)=O)C(=O)CCSCc2ccc(cc2)C(=O)N1`, for which the Kd in series [2] worked out at 0.55 µM.
